How the values were obtained:
[1] = system: T1, Dual specificity mitogen-activated protein kinase kinase 6 (Homo sapiens), P52564 [S207D,T211D]; assay: Residual activity of MKK6 S207D/T211D mutant at 0.1 uM by microplate scintillation counting
T1 sequence (whole entry): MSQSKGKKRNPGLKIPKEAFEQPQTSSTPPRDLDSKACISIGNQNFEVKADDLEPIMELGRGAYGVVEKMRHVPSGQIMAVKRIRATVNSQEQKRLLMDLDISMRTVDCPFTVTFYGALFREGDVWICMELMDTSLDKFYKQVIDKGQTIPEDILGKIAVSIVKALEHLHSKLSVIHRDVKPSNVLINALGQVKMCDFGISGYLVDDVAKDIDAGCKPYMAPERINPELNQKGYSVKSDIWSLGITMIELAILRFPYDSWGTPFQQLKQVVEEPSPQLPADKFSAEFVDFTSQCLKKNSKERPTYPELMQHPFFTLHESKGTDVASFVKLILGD

[2] = molecular target: Wee1-like protein kinase (Homo sapiens) (UniProt P30291); assay: Residual activity of WEE1 at 10 uM by microplate scintillation counting
[3] = molecular target: Tyrosine-protein kinase Fyn (Homo sapiens) (UniProt P06241); assay: Residual activity of FYN at 10 uM by microplate scintillation counting
[4] = molecular target: T2, Serine/threonine-protein kinase D1 (Homo sapiens) (UniProt Q15139); assay: Residual activity of PKCmu at 10 uM by microplate scintillation counting
T2 sequence (whole entry): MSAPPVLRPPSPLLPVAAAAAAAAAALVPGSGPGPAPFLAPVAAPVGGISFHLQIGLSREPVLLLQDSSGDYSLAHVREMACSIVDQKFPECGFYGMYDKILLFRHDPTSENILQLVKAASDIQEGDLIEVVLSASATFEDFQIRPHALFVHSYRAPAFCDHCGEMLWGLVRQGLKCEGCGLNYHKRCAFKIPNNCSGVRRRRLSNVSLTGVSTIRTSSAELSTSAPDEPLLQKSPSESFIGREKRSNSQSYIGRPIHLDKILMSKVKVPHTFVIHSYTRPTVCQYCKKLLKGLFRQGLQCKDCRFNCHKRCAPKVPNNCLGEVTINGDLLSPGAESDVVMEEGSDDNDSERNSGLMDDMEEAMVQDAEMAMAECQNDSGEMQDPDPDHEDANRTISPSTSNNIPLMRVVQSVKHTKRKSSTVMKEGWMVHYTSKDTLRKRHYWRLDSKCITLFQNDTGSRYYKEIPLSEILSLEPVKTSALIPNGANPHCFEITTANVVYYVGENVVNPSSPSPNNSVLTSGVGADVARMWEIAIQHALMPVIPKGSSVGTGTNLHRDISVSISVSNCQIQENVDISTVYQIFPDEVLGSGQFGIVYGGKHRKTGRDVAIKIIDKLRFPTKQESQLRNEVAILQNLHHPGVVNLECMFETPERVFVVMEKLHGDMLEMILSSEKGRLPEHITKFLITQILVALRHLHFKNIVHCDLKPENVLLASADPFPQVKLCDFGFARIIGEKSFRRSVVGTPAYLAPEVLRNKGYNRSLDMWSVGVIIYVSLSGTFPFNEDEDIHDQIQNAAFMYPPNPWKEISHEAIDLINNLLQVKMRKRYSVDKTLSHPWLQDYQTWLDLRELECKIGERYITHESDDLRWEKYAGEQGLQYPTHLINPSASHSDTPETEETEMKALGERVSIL

[5] = molecular target: T3, Inhibitor of nuclear factor kappa-B kinase subunit beta (Homo sapiens) (UniProt O14920); assay: Residual activity of IKK-beta at 0.1 uM by microplate scintillation counting
T3 sequence (whole entry): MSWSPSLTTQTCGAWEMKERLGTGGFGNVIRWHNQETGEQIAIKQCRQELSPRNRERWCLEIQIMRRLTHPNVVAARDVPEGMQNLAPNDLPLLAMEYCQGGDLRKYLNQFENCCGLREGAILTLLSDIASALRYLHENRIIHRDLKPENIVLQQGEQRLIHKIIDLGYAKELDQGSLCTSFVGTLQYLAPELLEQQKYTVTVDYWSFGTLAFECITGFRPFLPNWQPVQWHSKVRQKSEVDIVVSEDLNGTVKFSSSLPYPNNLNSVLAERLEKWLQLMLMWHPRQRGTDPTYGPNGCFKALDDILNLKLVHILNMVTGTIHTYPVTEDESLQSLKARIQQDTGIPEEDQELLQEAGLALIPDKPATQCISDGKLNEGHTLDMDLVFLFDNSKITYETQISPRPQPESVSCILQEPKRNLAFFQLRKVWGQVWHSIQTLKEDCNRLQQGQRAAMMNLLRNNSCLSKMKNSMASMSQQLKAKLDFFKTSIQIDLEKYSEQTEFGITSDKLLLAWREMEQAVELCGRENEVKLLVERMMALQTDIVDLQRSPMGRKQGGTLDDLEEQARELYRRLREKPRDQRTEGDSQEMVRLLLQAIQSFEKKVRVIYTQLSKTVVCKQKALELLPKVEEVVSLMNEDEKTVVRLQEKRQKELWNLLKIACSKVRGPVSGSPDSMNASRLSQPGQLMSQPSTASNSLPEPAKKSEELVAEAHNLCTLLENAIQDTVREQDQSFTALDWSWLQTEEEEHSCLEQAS

[6] = molecular target: Serine/threonine-protein kinase 26 (Homo sapiens) (UniProt Q9P289); assay: Residual activity of MST4 at 1 uM by microplate scintillation counting
[7] = molecular target: Ribosomal protein S6 kinase alpha-3 (Homo sapiens) (UniProt P51812); assay: Residual activity of RPS6KA3 at 0.1 uM by microplate scintillation counting
[8] = molecular target: Tyrosine-protein kinase Lck (Homo sapiens) (UniProt P06239); assay: Residual activity of LCK at 0.1 uM by microplate scintillation counting
[9] = molecular target: Serine/threonine-protein kinase MARK2 (Homo sapiens) (UniProt Q7KZI7); assay: Residual activity of MARK2 at 0.1 uM by microplate scintillation counting
[10] = molecular target: Protein kinase C gamma type (Homo sapiens) (UniProt P05129); assay: Residual activity of PKCgamma at 10 uM by microplate scintillation counting

Tyrosine-protein kinase Lck (Homo sapiens), sequence (P06239 2-509 limits assumed): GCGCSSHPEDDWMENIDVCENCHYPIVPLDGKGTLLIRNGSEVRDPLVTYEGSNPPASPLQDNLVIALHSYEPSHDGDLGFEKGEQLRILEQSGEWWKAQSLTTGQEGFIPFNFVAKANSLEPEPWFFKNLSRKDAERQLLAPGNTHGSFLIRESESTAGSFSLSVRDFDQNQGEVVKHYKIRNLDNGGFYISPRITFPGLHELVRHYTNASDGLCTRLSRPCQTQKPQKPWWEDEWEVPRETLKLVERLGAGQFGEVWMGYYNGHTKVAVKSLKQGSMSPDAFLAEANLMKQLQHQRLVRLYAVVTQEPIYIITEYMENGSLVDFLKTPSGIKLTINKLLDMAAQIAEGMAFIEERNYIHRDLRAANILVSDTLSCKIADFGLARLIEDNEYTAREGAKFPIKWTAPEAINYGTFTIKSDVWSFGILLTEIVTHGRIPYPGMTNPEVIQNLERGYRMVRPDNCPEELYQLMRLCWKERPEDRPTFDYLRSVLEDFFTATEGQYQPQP
Tyrosine-protein kinase Fyn (Homo sapiens), sequence (P06241 2-537 limits assumed): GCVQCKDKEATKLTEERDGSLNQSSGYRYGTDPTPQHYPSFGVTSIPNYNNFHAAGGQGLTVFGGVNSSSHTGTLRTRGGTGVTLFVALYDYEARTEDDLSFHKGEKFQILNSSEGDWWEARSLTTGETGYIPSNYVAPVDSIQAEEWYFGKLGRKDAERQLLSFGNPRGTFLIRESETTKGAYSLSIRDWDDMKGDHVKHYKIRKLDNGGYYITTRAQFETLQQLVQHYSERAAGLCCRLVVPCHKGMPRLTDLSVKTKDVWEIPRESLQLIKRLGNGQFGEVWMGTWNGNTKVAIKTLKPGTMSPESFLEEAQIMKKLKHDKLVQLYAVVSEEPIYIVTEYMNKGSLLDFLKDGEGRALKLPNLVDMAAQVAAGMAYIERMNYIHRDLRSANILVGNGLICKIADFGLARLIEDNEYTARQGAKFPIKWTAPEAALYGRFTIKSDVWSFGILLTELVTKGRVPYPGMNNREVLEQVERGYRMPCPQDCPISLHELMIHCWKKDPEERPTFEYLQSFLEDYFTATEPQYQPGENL
Serine/threonine-protein kinase MARK2 (Homo sapiens), sequence (Q7KZI7 whole entry): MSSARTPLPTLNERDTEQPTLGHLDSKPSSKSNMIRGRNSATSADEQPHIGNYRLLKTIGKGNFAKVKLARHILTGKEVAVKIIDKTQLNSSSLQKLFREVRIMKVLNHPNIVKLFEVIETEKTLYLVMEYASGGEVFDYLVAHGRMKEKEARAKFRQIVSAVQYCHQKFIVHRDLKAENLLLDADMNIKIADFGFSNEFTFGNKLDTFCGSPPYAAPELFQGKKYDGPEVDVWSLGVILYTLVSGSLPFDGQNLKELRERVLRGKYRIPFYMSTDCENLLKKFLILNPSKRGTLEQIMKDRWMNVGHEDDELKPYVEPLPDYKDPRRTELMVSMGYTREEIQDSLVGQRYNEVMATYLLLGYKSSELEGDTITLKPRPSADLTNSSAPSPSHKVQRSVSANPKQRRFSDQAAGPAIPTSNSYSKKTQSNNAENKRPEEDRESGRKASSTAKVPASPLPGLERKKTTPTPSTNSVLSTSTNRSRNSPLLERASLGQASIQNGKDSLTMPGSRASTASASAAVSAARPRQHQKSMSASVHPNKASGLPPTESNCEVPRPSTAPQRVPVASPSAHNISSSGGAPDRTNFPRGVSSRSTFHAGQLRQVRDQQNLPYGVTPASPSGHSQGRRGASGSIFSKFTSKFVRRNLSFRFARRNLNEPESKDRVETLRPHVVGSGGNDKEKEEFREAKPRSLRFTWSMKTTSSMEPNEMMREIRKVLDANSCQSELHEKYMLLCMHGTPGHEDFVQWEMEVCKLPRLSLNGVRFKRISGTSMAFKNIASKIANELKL
Wee1-like protein kinase (Homo sapiens), sequence (P30291 whole entry, looked up): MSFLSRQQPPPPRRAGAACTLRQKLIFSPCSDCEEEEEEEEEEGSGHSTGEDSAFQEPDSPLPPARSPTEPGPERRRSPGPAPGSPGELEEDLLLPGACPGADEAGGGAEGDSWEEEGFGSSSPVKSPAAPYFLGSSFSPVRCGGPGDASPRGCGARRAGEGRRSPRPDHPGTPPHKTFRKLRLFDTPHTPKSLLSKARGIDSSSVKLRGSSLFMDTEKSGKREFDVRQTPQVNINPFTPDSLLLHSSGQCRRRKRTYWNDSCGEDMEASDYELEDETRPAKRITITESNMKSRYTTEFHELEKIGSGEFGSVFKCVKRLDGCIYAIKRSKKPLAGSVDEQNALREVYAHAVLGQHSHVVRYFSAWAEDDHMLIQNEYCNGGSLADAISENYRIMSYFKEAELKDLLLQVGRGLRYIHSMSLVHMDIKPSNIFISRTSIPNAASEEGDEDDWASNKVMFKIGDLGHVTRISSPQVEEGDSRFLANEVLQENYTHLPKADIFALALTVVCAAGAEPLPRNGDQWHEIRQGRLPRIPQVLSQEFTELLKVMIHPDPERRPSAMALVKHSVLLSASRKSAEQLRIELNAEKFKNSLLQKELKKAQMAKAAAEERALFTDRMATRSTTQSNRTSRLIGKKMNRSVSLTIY
Ribosomal protein S6 kinase alpha-3 (Homo sapiens), sequence (P51812 whole entry): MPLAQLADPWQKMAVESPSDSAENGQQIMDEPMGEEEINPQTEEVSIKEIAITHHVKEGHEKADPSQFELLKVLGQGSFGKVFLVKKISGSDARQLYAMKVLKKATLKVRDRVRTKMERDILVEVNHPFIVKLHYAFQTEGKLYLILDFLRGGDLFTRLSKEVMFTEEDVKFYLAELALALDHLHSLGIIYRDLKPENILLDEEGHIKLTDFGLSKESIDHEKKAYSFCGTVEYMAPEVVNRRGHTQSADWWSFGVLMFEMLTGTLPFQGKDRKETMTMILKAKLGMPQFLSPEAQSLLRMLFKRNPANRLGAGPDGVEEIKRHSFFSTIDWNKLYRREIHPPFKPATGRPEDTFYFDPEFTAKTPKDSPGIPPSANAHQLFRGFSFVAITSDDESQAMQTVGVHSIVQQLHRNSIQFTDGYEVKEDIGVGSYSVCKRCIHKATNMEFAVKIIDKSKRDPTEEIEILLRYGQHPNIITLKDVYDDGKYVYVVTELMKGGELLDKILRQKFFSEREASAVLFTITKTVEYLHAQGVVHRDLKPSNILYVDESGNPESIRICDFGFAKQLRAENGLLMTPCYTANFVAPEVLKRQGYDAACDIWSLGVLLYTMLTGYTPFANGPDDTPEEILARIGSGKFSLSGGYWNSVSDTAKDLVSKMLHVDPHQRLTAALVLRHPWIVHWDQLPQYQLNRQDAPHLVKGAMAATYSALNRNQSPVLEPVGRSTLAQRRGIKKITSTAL
Serine/threonine-protein kinase 26 (Homo sapiens), sequence (Q9P289 2-416 limits assumed): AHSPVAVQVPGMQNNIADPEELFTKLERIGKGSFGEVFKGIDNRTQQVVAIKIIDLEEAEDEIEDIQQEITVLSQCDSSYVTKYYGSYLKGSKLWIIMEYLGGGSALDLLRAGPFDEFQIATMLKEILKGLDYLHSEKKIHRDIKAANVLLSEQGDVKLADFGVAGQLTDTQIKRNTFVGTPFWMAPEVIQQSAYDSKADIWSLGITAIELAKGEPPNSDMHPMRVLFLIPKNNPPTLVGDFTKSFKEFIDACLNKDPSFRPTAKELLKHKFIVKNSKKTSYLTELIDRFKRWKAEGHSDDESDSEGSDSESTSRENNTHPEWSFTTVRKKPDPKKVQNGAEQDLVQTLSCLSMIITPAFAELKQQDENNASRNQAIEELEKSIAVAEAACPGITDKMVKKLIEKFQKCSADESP

residual activity [1] [%]	residual activity [2] [%]	residual activity [3] [%]	residual activity [4] [%]	residual activity [5] [%]	residual activity [6] [%]	residual activity [7] [%]	residual activity [8] [%]	residual activity [9] [%]	residual activity [10] [%]	SMILES
72	46	70	126	91	98	94	104	90	33	COc1cc2c(Oc3ccc(-c4nc5ccccc5s4)cc3)ncnc2cc1OCCCN1CCCC1
80	2	56	122	96	109	93	92	82	80	COc1cc2c(Oc3ccc(-c4nc5ccccc5s4)cc3)ncnc2cc1OCCCN1CCN(C)CC1
95	2	10	111	85	109	95	86	87	58	COc1cc2c(Oc3ccc(-c4nc5ccccc5s4)cc3F)ncnc2cc1OCCCN1CCN(C)CC1

— ChEMBL document CHEMBL1152560, “Substituted 2-arylbenzothiazoles as kinase inhibitors: hit-to-lead optimization” (Bioorg Med Chem, 2009)
